Data taken from US20260021064A1, “ACETAMINOPHEN AND NAPROXEN FOR TREATING PAIN” (Kenvue Brands LLC, priority 2022, published 2026).
Like-named read-outs stand apart in the source and are kept apart here.

How the values were obtained:
[1] = test system: pain after surgical extraction of four third molars; conditions: for PID Score, Least Squares Mean (Standard Error): PI-NRS 0-10, difference from baseline
Method: (§1) 1. Time-Weighted Sum of Pain Intensity Difference Score From Baseline (0 Hour) to 6 Hours (SPID 0-6) [Time Frame: Baseline (0 hour) up to 6 hours post-dose]. Time-weighted sum of the pain intensity difference (SPID) score was measured using a Pain Intensity-Numerical Rating Scale (PI-NRS) ranging from 0-10 (0=no pain, 10=very severe pain). The possible range of SPID for 0-6 hours was from −60 to 60. A higher value of SPID indicated greater pain relief. PID was the difference between baseline pain intensity and pain intensity at assessment. Time-weighted sum of the pain intensity difference scores were derived by first multiplying each PID score by the time from the previous time point and adding these time-weighted PID scores together over the intervals from 0 to 6 hours.
2. Time-weighted Sum of Pain Intensity Difference Score From Baseline (0 Hour) to 12 Hours (SPID 0-12) [Time Frame: Baseline (0 hour) up to 12 hours post-dose]. Time-weighted sum of the pain intensity difference score was measured using a PI-NRS ranging from 0-10 (0=no pain, 10=very severe pain). The possible range of SPID for 0-12 hours was from-120 to 120. A higher value of SPID indicated greater pain relief. PID was the difference between baseline pain intensity and pain intensity at assessment (12 hours). Time-weighted sum of the pain intensity difference scores were derived by first multiplying each PID score by the time from the previous time point and adding these time-weighted PID scores together over the intervals from 0 to 12 hours.
4. Time-Weighted Sum of Pain Intensity Difference Score From Baseline (0 Hour) to 8 Hours (SPID 0-8) [Time Frame: Baseline (0 hour) up to 8 hours post-dose]. Time-weighted sum of the pain intensity difference score was measured using a PI-NRS ranging from 0-10 (0=no pain, 10=very severe pain). The possible range of SPID for 0-8 hours was from −80 to 80. A higher value of SPID indicated greater pain relief. PID was the difference between baseline pain intensity and pain intensity at assessment (8 hours). Time-weighted sum of the pain intensity difference scores were derived by first multiplying each PID score by the time from the previous time point and adding these time-weighted PID scores together over the intervals from 0 to 8 hours.
6. Pain Intensity Difference (PID) Scores at Individual Time Points [Time Frame: 0.25 hours, 0.5 hours, 0.75 hours, 1 hours, 1.25 hours, 1.5 hours, 2 hours, 3 hours, 4 hours, 5 hours, 6 hours, 7 hours, 8 hours, 9 hours, 10 hours, 11 hours, and 12 hours]. Pain Intensity was self-reported over 12 hours, using a pain rating of 0-10 on the PI-NRS, with score ranged from 0-10 (0=no pain; 10 =worst imaginable pain). Pain intensity differences were calculated with respect to baseline at each time point after study drug administration.
as §1, with “Time-Weighted” for “1. Time-Weighted”, “0-6):” for “0-6) [Time Frame: Baseline (0 hour) up to 6 hours post-dose].”
Time-weighted Sum of Pain Intensity Difference Score From Baseline (0 Hour) to 12 Hours (SPID 0-12): Time-weighted sum of the pain intensity difference score was measured using a PI-NRS ranging from 0-10 (0=no pain, 10=very severe pain). The possible range of SPID for 0-12 hours was from-120 to 120. A higher value of SPID indicated greater pain relief. PID was the difference between baseline pain intensity and pain intensity at assessment (12 hours).

[2] = test system: pain after surgical extraction of four third molars; conditions: for PAR Score, Least Squares Mean (Standard Error): PR-NRS 0-10
Method: (§2) 1. Time-Weighted Sum of Total Pain Relief Score From Baseline (0 Hour) to 6 Hours (TOTPAR 0-6) [Time Frame: Baseline (0 hour) up to 6 hours post-dose]. Time-weighted total pain relief (TOTPAR) was measured using a Pain Relief Numerical Rating Scale (PR-NRS) ranging from 0-10 (0=no relief, 10=complete relief). Total pain relief scores (TOTPARs) were calculated by multiplying the pain relief score at each postdose time point by the duration (in hours) since the preceding time point and then summing these values. The minimum value was 0, and the maximum value was 60. Higher scores was indicative of more pain relief.
as §2, with “2.” for “1.”, “8” for “6”, “0-8)” for “0-6)”, “TOTPAR” for “Time-weighted total pain relief (TOTPAR)”, “PR-NRS” for “Pain Relief Numerical Rating Scale (PR-NRS)”, “80.” for “60.”
as §2, with “3.” for “1.”, “12” for “6”, “0-12)” for “0-6)”, “TOTPAR” for “Time-weighted total pain relief (TOTPAR)”, “PR-NRS” for “Pain Relief Numerical Rating Scale (PR-NRS)”, “120.” for “60.”
5. Pain Relief (PAR) Scores at Individual Timepoints [Time Frame: 0.25 hours, 0.5 hours, 0.75 hours, 1 hours, 1.25 hours, 1.5 hours, 2 hours, 3 hours, 4 hours, 5 hours, 6 hours, 7 hours, 8 hours, 9 hours, 10 hours, 11 hours, and 12 hours]. Participants answered a question at individual time points: “how much relief do you have from your starting pain?” on a 11-point PR-NRS. Scale ranged from 0=no relief to 10=complete relief. Higher score indicated improvement in pain.
as §2, with “Time-Weighted” for “1. Time-Weighted”, “0-6):” for “0-6) [Time Frame: Baseline (0 hour) up to 6 hours post-dose].”
(§3) Time-Weighted Sum of Total Pain Relief Score From baseline (0 Hour) to 8 Hours (TOTPAR 0-8): TOTPAR was measured using a PR-NRS ranging from 0-10 (0=no relief, 10=complete relief). Total pain relief scores (TOTPARs) were calculated by multiplying the pain relief score at each postdose time point by the duration (in hours) since the preceding time point and then summing these values. The minimum value was 0, and the maximum value was 80. Higher scores was indicative of more pain relief.
as §3, with “Baseline” for “baseline”, “Hour” for “Hour)”, “12” for “8”, “0-12):” for “0-8):”, “120.” for “80.”
Pain Relief (PAR) Scores at Timepoints: Participants answered a question at individual time points: “how much relief do you have from your starting pain?” on a 11-point PR-NRS. Scale ranged from 0-no relief to 10-complete relief.

[3] = test system: pain after surgical extraction of four third molars; conditions: single oral dose; up to 12 hours; scale poor (0) to excellent (4)
Method: Participant's Global Evaluation of Study Medication OR Overall Impression of Study Medication According to Participant's Global Evaluation [Time Frame: Up to 12 hours]. Participants were asked to rate their overall impression of the study medication using the following scale: poor (0), fair (1), good (2), very good (3), and excellent (4) where higher score represented better outcome.
Participant's Global Evaluation of Study Medication OR Overall Impression of Study Medication According to Participant's Global Evaluation: Participants were asked to rate their overall impression of the study medication using the following scale: poor (0), fair (1), good (2), very good (3), and excellent (4) where higher score represented better outcome

## COc1ccc2cc([C@H](C)C(=O)O)ccc2c1 [Arm 2: Naproxen Sodium 440 mg, naproxen sodium]
[1]; 0.25 Hours post-dose
  PID Score, Least Squares Mean (Standard Error): 0.58 (0.15)
[1]; 0.5 Hours post-dose
  PID Score, Least Squares Mean (Standard Error): 1.82 (0.24)
[1]; 0.75 Hours post-dose
  PID Score, Least Squares Mean (Standard Error): 3.15 (0.27)
[1]; 1 Hours post-dose
  PID Score, Least Squares Mean (Standard Error): 3.97 (0.28)
[1]; 1.25 Hours post-dose
  PID Score, Least Squares Mean (Standard Error): 4.50 (0.28)
[1]; 1.5 Hours post-dose
  PID Score, Least Squares Mean (Standard Error): 4.72 (0.28)
[1]; 2 Hours post-dose
  PID Score, Least Squares Mean (Standard Error): 4.87 (0.28)
[1]; 3 Hours post-dose
  PID Score, Least Squares Mean (Standard Error): 4.75 (0.30)
[1]; 4 Hours post-dose
  PID Score, Least Squares Mean (Standard Error): 4.63 (0.31)
[1]; 5 Hours post-dose
  PID Score, Least Squares Mean (Standard Error): 4.59 (0.32)
[1]; 6 Hours post-dose
  PID Score, Least Squares Mean (Standard Error): 4.50 (0.32)
[1]; 7 Hours post-dose
  PID Score, Least Squares Mean (Standard Error): 4.36 (0.32)
[1]; 9 Hours post-dose
  PID Score, Least Squares Mean (Standard Error): 4.04 (0.33)
[1]; 10 Hours post-dose
  PID Score, Least Squares Mean (Standard Error): 4.01 (0.35)
[1]; 11 Hours post-dose
  PID Score, Least Squares Mean (Standard Error): 3.99 (0.35)
[1]; 12 Hours post-dose
  PID Score, Least Squares Mean (Standard Error): 3.91 (0.36)
[1]; single oral dose, possible range -60 to 60, higher = greater pain relief
  Time-Weighted Sum of Pain Intensity Difference Score From Baseline (0 Hour) to 6 Hours (SPID 0-6), Least Squares Mean (Standard Error): 25.59 (1.562)
[1]; single oral dose, possible range -80 to 80, higher = greater pain relief
  Time-Weighted Sum of Pain Intensity Difference Score From Baseline (0 Hour) to 8 Hours (SPID 0-8), Least Squares Mean (Standard Error): 34.11
[1]; single oral dose, possible range -120 to 120, higher = greater pain relief
  Time-weighted Sum of Pain Intensity Difference Score From Baseline (0 Hour) to 12 Hours (SPID 0-12), Least Squares Mean (Standard Error): 50.07 (3.341)
[2]; 0.25 Hours post-dose
  PAR Score, Least Squares Mean (Standard Error): 0.80 (0.18)
[2]; 0.5 Hours post-dose
  PAR Score, Least Squares Mean (Standard Error): 2.27 (0.31)
[2]; 0.75 Hours post-dose
  PAR Score, Least Squares Mean (Standard Error): 4.11 (0.35)
[2]; 1 Hours post-dose
  PAR Score, Least Squares Mean (Standard Error): 5.29 (0.35)
[2]; 1.25 Hours post-dose
  PAR Score, Least Squares Mean (Standard Error): 5.99 (0.35)
[2]; 1.5 Hours post-dose
  PAR Score, Least Squares Mean (Standard Error): 6.36 (0.34)
[2]; 2 Hours post-dose
  PAR Score, Least Squares Mean (Standard Error): 6.62 (0.34)
[2]; 3 Hours post-dose
  PAR Score, Least Squares Mean (Standard Error): 6.52 (0.35)
[2]; 4 Hours post-dose
  PAR Score, Least Squares Mean (Standard Error): 1.46 (0.36)
[2]; 5 Hours post-dose
  PAR Score, Least Squares Mean (Standard Error): 6.45 (0.37)
[2]; 6 Hours post-dose
  PAR Score, Least Squares Mean (Standard Error): 6.26 (0.38)
[2]; 8 Hours post-dose
  PAR Score, Least Squares Mean (Standard Error): 5.95 (0.39)
[2]; 9 Hours post-dose
  PAR Score, Least Squares Mean (Standard Error): 5.73 (0.40)
[2]; 10 Hours post-dose
  PAR Score, Least Squares Mean (Standard Error): 5.71 (0.42)
[2]; 11 Hours post-dose
  PAR Score, Least Squares Mean (Standard Error): 5.71 (0.43)
[2]; 12 Hours post-dose
  PAR Score, Least Squares Mean (Standard Error): 5.62 (0.44)
[2]; single oral dose, range 0 to 60, higher = more pain relief
  Time-Weighted Sum of Total Pain Relief Score From Baseline (0 Hour) to 6 Hours (TOTPAR 0-6), Least Squares Mean (Standard Error): 35.20 (1.848)
[2]; single oral dose, range 0 to 80, higher = more pain relief
  Time-Weighted Sum of Total Pain Relief Score From baseline (0 Hour) to 8 Hours (TOTPAR 0-8), Least Squares Mean (Standard Error): 47.19
[2]; single oral dose, range 0 to 120, higher = more pain relief
  Time-Weighted Sum of Total Pain Relief Score From Baseline (0 Hour to 12 Hours (TOTPAR 0-12), Least Squares Mean (Standard Error)): 69.96
[3]
  Participant's Global Evaluation of Study Medication, Least Squares Mean (Standard Error): 2.7 (0.13)
